In ChEMBL document CHEMBL1124763, “Nucleoside conjugates. 11. Synthesis and antitumor activity of 1-beta-D-arabinofuranosylcytosine and cytidine conjugates of thioether lipids” (1990):

What was measured:
Assay type in all cases: functional
Mus musculus [1] = experiment: Range of survival days for antitumor activity against Ip implanted L1210 / 0 lymphoid leukemia in mice at a dose of 100 mg/kg per day after treatment 1; range is 9-10; settings: route intraperitoneal
Mus musculus [2] = experiment: Increase of life span was determined against Ip implanted L1210 / 0 lymphoid leukemia in mice at a dose of 200 mg/kg per day after treatment 1; settings: L1210/0, ip, route intraperitoneal
Mus musculus [3] = experiment: Survival time treated / survival time (T/C) for antitumor activity against Ip implanted L1210 / 0 lymphoid leukemia in mice at a dose of 100 mg/kg per day after treatment 1;9.5/8; settings: route intraperitoneal
Mus musculus [4] = experiment: Survival time treated / survival time (T/C) for antitumor activity against Ip implanted L1210 / 0 lymphoid leukemia in mice at a dose of 200 mg/kg per day after treatment 1;7.5/8; settings: route intraperitoneal
Mus musculus [5] = experiment: Range of survival days for antitumor activity against Ip implanted L1210 / 0 lymphoid leukemia in mice at a dose of 200 mg/kg per day after treatment 1; range is 4-12; settings: route intraperitoneal
Mus musculus [6] = experiment: Increase of life span was determined against Ip implanted L1210 / 0 lymphoid leukemia in mice at a dose of 100 mg/kg per day after treatment 1; settings: L1210/0, ip, route intraperitoneal
Mus musculus [7] = experiment: Range of survival days for antitumor activity against Ip implanted L1210 / 0 lymphoid leukemia in mice at a dose of 200 mg/kg per day after treatment 1; settings: route intraperitoneal
Mus musculus [8] = experiment: Range of survival days for antitumor activity against Ip implanted L1210 / 0 lymphoid leukemia in mice at a dose of 100 mg/kg per day after treatment 1; range is 4-11; settings: route intraperitoneal
Mus musculus [9] = experiment: Survival time treated / survival time (T/C) for antitumor activity against Ip implanted L1210 / 0 lymphoid leukemia in mice at a dose of 100 mg/kg per day after treatment 1;9.5/7; settings: route intraperitoneal
Mus musculus [10] = experiment: Survival time treated / survival time (T/C) for antitumor activity against Ip implanted L1210 / 0 lymphoid leukemia in mice at a dose of 200 mg/kg per day after treatment 1;6/7; settings: route intraperitoneal
Mus musculus [11] = experiment: Range of survival days for antitumor activity against Ip implanted L1210 / 0 lymphoid leukemia in mice at a dose of 200 mg/kg per day after treatment 1; range is 4-8; settings: route intraperitoneal
Mus musculus [12] = experiment: Survival time treated/survival time tested (T/C) for antitumor activity against Ip implanted L1210 / ara-C lymphoid leukemia in mice at a dose of 300 mg/kg per day;8/9; settings: route intraperitoneal
Mus musculus [13] = experiment: Increase of life span was determined against Ip implanted L1210 / 0 lymphoid leukemia in mice at a dose of 200 mg/kg per day after treatment 1;8/7.5; settings: L1210/0, ip, route intraperitoneal
Mus musculus [14] = experiment: Survival time treated / survival time (T/C) for antitumor activity against Ip implanted L1210 / 0 lymphoid leukemia in mice at a dose of 200 mg/kg per day after treatment 1; settings: route intraperitoneal
Mus musculus [15] = experiment: Range of survival days for antitumor activity against Ip implanted L1210 / ara-C lymphoid leukemia in mice at a dose of 300 mg/kg per day; range is 8-9; settings: route intraperitoneal
Mus musculus [16] = experiment: Increase of life span was determined against Ip implanted L1210 / ara-C lymphoid leukemia in mice at a dose of 300 mg/kg per day; settings: route intraperitoneal

CCCCCCCCCCCCCCCCCCSCC(COP(=O)(O)OP(=O)(O)OC[C@H]1OC(n2ccc(N)nc2=O)[C@@H](O)[C@@H]1O)OCC (mixture of isomers)
Range of survival days (Mus musculus [1]): 9
ILS at 200 mg/kg/day (Mus musculus [2]): -6%
T/C (Mus musculus [3]): 9.5
T/C (Mus musculus [4]): 7.5
Range of survival days (Mus musculus [5]): 4
ILS at 100 mg/kg/day (Mus musculus [6]): 19%

CCCCCCCCCCCCCCCCCCSCC(COP(=O)(O)OP(=O)(O)OC[C@H]1O[C@@H](n2ccc(N)nc2=O)[C@@H](O)[C@@H]1O)OC (mixture of isomers)
Range of survival days (Mus musculus [7]): 6
ILS at 200 mg/kg/day (Mus musculus [2]): -14%
Range of survival days (Mus musculus [8]): 4
T/C (Mus musculus [9]): 9.5
T/C (Mus musculus [10]): 6
ILS at 100 mg/kg/day (Mus musculus [6]): 36%

CCCCCCCCCCCCCCCCCCSCC(COP(=O)(O)OP(=O)(O)OC[C@H]1O[C@@H](n2ccc(N)nc2=O)[C@H](O)[C@@H]1O)OC (stereo partly drawn)
Range of survival days (Mus musculus [11]): 4
T/C (Mus musculus [12]): 8
ILS at 200 mg/kg/day (Mus musculus [13]): 7%
T/C (Mus musculus [14]): 8
Range of survival days (Mus musculus [15]): 8
ILS at 300 mg/kg/day (Mus musculus [16]): -11%
